What was measured:
[1] = system: HIV-1 T-tropic strain LAI; experiment: Antiviral assay: HIV-1 LAI infection of MT-2 cells, reverse transcriptase readout (EC50, Table 48); assay type: cell-based; conditions: Human immunodeficiency virus 1, MT2; read-out: EC50-LAI
Source text: The materials and experimental procedures used to assess the anti-HIV activity of the parent compounds which are generated from the prodrugs in vivo are described below:
• The human T cell line MT-2 and PM1 (AIDS Research and Reference Reagent Program, National Institutes of Health) were maintained and propagated in Medium RPMI-1640 (Invitrogen, Carlsbad, Calif.), containing 10% fetal Bovine serum. (FBS, Sigma, St. Louis, Mo.).
• Laboratory strains of HIV-1—the T-tropic strain LAI was obtained through the AIDS Research and Reference Reagent Program, National Institutes of Health. It was amplified in MT-2 cells and titered using a virus yield assay (2). Detection was achieved through use of a reverse transcriptase assay (3), adapted for use with a Scintillation Proximity detection protocol (1) (Amersham Biosciences, Piscataway, N.J.).
• 1. Compounds stocks were prepared by dissolving in DMSO to 30 mM. For dilution plates, compounds were serially diluted 3-fold into DMSO, using 96-well polypropylene plates, so that the concentrations were 100-fold greater than the final assay concentration. For antiviral and cytotoxicity assays, 2 μl was added per well (1% final DMSO concentration). • 2. Compounds were added from dilution plates to 96 well tissue culture plates, containing 100 μl Medium RPMI-1640, containing 10% fetal bovine serum at a concentration of <20 μM. • 3. For antiviral assays, cells were infected at a multiplicity of infection of 0.005. After 1 h at 37° C., infected cells were diluted to 200,000 cells per ml in Medium RPMI-1640, containing 10% fetal bovine serum. 100 μl of this solution was added per well, giving a final volume of 200 μl. • 4. Plates were incubated at 37° C. in a humidified CO2 incubator and harvested after 5 days. • 5. Viral infections were monitored by measuring reverse transcriptase activity in the supernatants of infected wells as described above. The percent inhibition for each compound was calculated by quantifying the readout level in cells infected in the presence of each compound as a percentage of that observed for cells infected in the absence of compound and subtracting such a determined value from 100. • 6. An EC50 provides a method for comparing the antiviral potency of the compounds of this invention. The effective concentration for fifty percent inhibition (EC50) was calculated with the Microsoft Excel Xlfit curve fitting software. For each compound, curves were generated from percent inhibition calculated at 8 different concentrations by using a four paramenter logistic model (model 205).

[2] = Stability (hydrolysis) of prodrug in fresh serum (rat); conditions: Rat Serum
Description: (§1) The stability of Iab was studied in fresh blood and serum from rat, dog, monkey and human (n=2). The blood was collected in vacutainers containing K2EDTA (Becton Dickinson, Franklin Lakes, N.J.). The serum was collected in vacutainers containing no anticoagulant. Iab was incubated at a starting concentration of approximately 10 μM for 60-90 min at 37° C. Serial samples were taken at the pre-determined times. Aliquots of blood samples (200 μL) were first mixed with 100 μL of water followed by 400 μL of acetonitrile. The serum samples (50 μL) were added into microtainers containing K2EDTA (Becton Dickinson, Franklin Lakes, N.J.) followed by the addition of 100 μL of acetonitrile. The supernatant was analyzed for both Iab and IVa by LC/MS/MS. The stability of Ibb was studied in fresh blood and serum from rat, dog, monkey and human (n=2). The blood was collected in vacutainers containing K2EDTA (Becton Dickinson, Franklin Lakes, N.J.). The serum was collected in vacutainers containing no anticoagulant. Ibb was incubated at a starting concentration of approximately 15 μM for 90 min at 37° C. Serial samples were taken at the pre-determined times. Aliquots of blood samples (200 μL) were first mixed with 100 μL of water followed by 400 μL of acetonitrile. The serum samples (50 μL) were added into microtainers containing K2EDTA (Becton Dickinson, Franklin Lakes, N.J.) followed by the addition of 100 μL of acetonitrile. […] The stability of Icb was studied in fresh blood and serum from rat, dog, monkey and human (n=2). The blood was collected in vacutainers containing K2EDTA (Becton Dickinson, Franklin Lakes, N.J.). The serum was collected in vacutainers containing no anticoagulant. Icb was incubated at a starting concentration of approximately 10 μM for 90 min at 37° C. Serial samples were taken at the pre-determined times. Aliquots of blood samples (200 μL) were first mixed with 100 μL of water followed by 400 μL of acetonitrile. The serum samples (50 μL) were added into microtainers containing K2EDTA (Becton Dickinson, Franklin Lakes, N.J.) followed by the addition of 100 μL of acetonitrile.

[3] = Stability of prodrug in Tris-HCl buffer
Description: The stability of Iab was also evaluated, as described above, in Tris-HCl buffer (0.1 M, pH 7.5). The stability of Ibb was also evaluated, as described above, in Tris-HCl buffer (0.1 M, pH 7.5). The stability of Icb was also evaluated, as described above, in Tris-HCl buffer (0.1 M, pH 7.5).

[4] = Stability of prodrug in fresh EDTA blood (human); conditions: Human EDTA blood
Description: as §1

[5] = Stability (hydrolysis) of prodrug in fresh serum (dog); conditions: Dog Serum

Molecule O=C(C(=O)N1CCN(C(=O)c2ccccc2)CC1)c1c[nH]c2c(-n3ccnn3)ncc(F)c12 [IVb] has an EC50 [1] of less than 1 µM.

Molecule COc1cnc(-n2cnc(C)n2)c2[nH]cc(C(=O)C(=O)N3CCN(C(=O)c4ccccc4)CC3)c12 [IVc] has an EC50 [1] of less than 1 µM.

In the case of COc1ncc(OC)c2c(C(=O)C(=O)N3CCN(C(=O)c4ccccc4)CC3)c[nH]c12 [IVa, N-(benzoyl)-N′-[(4,7-dimethoxy-6-azaindol-3-yl)-oxoacetyl]piperazine], the “Iab / IVa Formed” value ([2]; 37°C, 0 min) is reported as 0.25 µM, the “Iab / IVa Formed” value ([2]; 15 min) is reported as 1.1 µM and the “Iab / IVa Formed” value ([2]; 30 min) is reported as 1.8 µM. For the same molecule, the “Iab / IVa Formed” value ([2]; 45 min) was 2.8 µM, the “Iab / IVa Formed” value ([2]; 60 min) was 3.7 µM and the “Iab / IVa Formed” value ([2]; 90 min) was 5.4 µM. For the same molecule, the EC50 [1] was less than 1 µM, the “Iab / IVa Formed” value ([3]; Tris-HCl buffer (0.1 M, pH 7.5), 37°C, 0 min) was 0.011 µM and the “% IVa Formed (of starting concentration of Iab)” value (“% IVa Formed” below) ([3]; Tris-HCl buffer, 0 min) was 0.11%. For the same molecule, the “% IVa Formed” value ([3]; Tris-HCl buffer, 20 min) was 0.081%, the “Iab / IVa Formed” value ([3]; Tris-HCl buffer, 20 min) was 0.008 µM and the “% IVa Formed” value ([3]; Tris-HCl buffer, 40 min) was 0.076%. The “Iab / IVa Formed” value ([3]; Tris-HCl buffer, 40 min) was 0.008 µM, the “% IVa Formed” value ([3]; Tris-HCl buffer, 60 min) was 0.088% and the “Iab / IVa Formed” value ([3]; Tris-HCl buffer, 60 min) was 0.009 µM. The “% IVa Formed” value ([4]; 0 min) was 0.55%, the “Iab / IVa Formed” value ([4]; 0 min) was 0.061 µM and the “% IVa Formed” value ([4]; 15 min) was 0.59%. The “Iab / IVa Formed” value ([4]; 15 min) was 0.067 µM, the “% IVa Formed” value ([4]; 30 min) was 0.50% and the “Iab / IVa Formed” value ([4]; 30 min) was 0.057 µM. The “% IVa Formed” value ([4]; 45 min) was 0.65%, the “Iab / IVa Formed” value ([4]; 45 min) was 0.073 µM and the “% IVa Formed” value ([4]; 60 min) was 0.75%. The “Iab / IVa Formed” value ([4]; 60 min) was 0.084 µM, the “Iab / IVa Formed” value ([5]; 37°C, 0 min) was 0.066 µM and the “Iab / IVa Formed” value ([5]; 15 min) was 0.85 µM. The “Iab / IVa Formed” value ([5]; 30 min) was 1.6 µM, the “Iab / IVa Formed” value ([5]; 45 min) was 2.5 µM and the “Iab / IVa Formed” value ([5]; 60 min) was 3.2 µM. The “Iab / IVa Formed” value ([5]; 90 min) was 4.4 µM.

— patent US20150315218A1, “SALTS OF PRODRUGS OF PIPERAZINE AND SUBSTITUTED PIPERIDINE ANTIVIRAL AGENTS” (Bristol-Myers Squibb Company, priority 2004, published 2015)
